Test results from patent US8178658B2 (Dow AgroSciences, LLC, priority 2008, dated 2012).

Experiments:
[1] = tested on: beet armyworm (BAW; Spodoptera exigua: Lepidoptera); experiment: 96-well microtiter plate-based high throughput (HTS) diet bioassay on beet armyworm (BAW HTS); assay type: in vivo; settings: BAW eggs, 12 μg test compound per well, mortality at 6 d post-treatment, mortality class
Description: (§1) Bioassays on beet armyworm (BAW; Spodoptera exigua: Lepidoptera) were conducted using either a 96-well microtiter plate-based high throughput (HTS) bioassay or a 128-well diet tray assay. The HTS assay is a based on a modification of Lewer et al. J. Nat. Prod. 2006, 69, 1506. BAW eggs of were placed on top of artificial diet (100 μl) in each well of 96-well microtiter plate. The diet was pretreated with test compounds (12 μg dissolved in 30 μL of DMSO-acetone-water mixture) layered on top of the diet using a liquid handling system and then allowed to dry for several hours. Infested plates were then covered with a layer of sterile cotton batting and the plate lid, and then held in the dark at 29° C. Mortality was recoded at 6 d post-treatment. Each plate had six replicates. The percent mortality was calculated from the average of the six replicates. In the case of the 128-well diet assay, three to five second instar BAW larvae were placed in each well (3 mL) of the diet tray that had been previously filled with 1 mL of artificial diet to which 50 μg/cm^2 of the test compound (dissolved in 50 μL of 90:10 acetone-water mixture) had been applied (to each of eight wells) and then allowed to dry. Trays were covered with a clear self-adhesive cover, and held at 25° C., 14:10 light-dark for six days. Percent mortality was recorded for the larvae in each well; activity in the eight wells was then averaged. In Table 7, under the BAW HTS or BAW 50 heading, an “A” means that the compound was tested and at least 50 percent mortality was observed whereas, “B” means that either (1) the compound was tested and less than 50 percent mortality was observed or (2) the compound was not tested.

[2] = tested on: beet armyworm (BAW; Spodoptera exigua: Lepidoptera); experiment: 128-well diet tray assay on beet armyworm (BAW 50); assay type: in vivo; settings: 128-well diet tray assay, second instar BAW larvae, mortality class
Description: as §1

[3] = 96-well microtiter plate HTS diet assay
[4] = 50 μg/cm^2 of test compound on diet

Row | Compound | BAW HTS ([1]; 96-well HTS diet bioassay) | BAW HTS [1, 3] | BAW 50 ug/cm2 [2, 4] | pest or weed control at 12 µg/well, 12 µg/well ([1]; Spodoptera exigua, 144 h, 96-well microtiter plate HTS diet assay, read-out: BAW HTS) [%] | BAW 50 ug/cm2 ([2]; 50 μg/cm2 of test compound on diet) | pest or weed control at 50 µg/cm2, 50 µg/cm2 ([2]; Spodoptera exigua, 144 h, 50 μg/cm^2 of test compound on diet, read-out: BAW 50 ug/cm2) [%]
1 | COC1C(C)OC(ON=Cc2ccc(C3=NN(c4ccc(OC(F)(F)F)cc4)CC3)cc2)C(OC)C1OC (stereo not shown) [Compound 15] | B (either (1) the compound was tested and less than 50 percent mortality was observed or (2) the compound was not tested) | B (either (1) the compound was tested and less than 50 percent mortality was observed or (2) the compound was not tested) | A (the compound was tested and at least 50 percent mortality was observed) |  |  | 
2 | COC1C(C)OC(ON=Cc2ccc(-n3cnc(-c4ccc(Br)cc4)c3)cc2)C(OC)C1OC (stereo not shown) [Compound 16] | A (the compound was tested and at least 50 percent mortality was observed) | A (the compound was tested and at least 50 percent mortality was observed) | B (either (1) the compound was tested and less than 50 percent mortality was observed or (2) the compound was not tested) |  |  | 
3 | COC1C(C)OC(ON=Cc2ccc(-c3cn(-c4cccc(Cl)c4C#N)cn3)cc2)C(OC)C1OC (stereo not shown) [Compound 17] | A (the compound was tested and at least 50 percent mortality was observed) | A (the compound was tested and at least 50 percent mortality was observed) | B (either (1) the compound was tested and less than 50 percent mortality was observed or (2) the compound was not tested) |  |  | 
4 | COC1C(C)OC(ON=Cc2ccccc2-c2cn(-c3ccc(OC(F)(F)F)cc3)cn2)C(OC)C1OC (stereo not shown) [Compound 19] | B (either (1) the compound was tested and less than 50 percent mortality was observed or (2) the compound was not tested) | B (either (1) the compound was tested and less than 50 percent mortality was observed or (2) the compound was not tested) | B (either (1) the compound was tested and less than 50 percent mortality was observed or (2) the compound was not tested) |  |  | 
5 | COC1C(C)OC(ON=Cc2c(F)ccc(-c3cn(-c4ccc(OC(F)(F)F)cc4)cn3)c2F)C(OC)C1OC (stereo not shown) [Compound 21] | A (the compound was tested and at least 50 percent mortality was observed) | A (the compound was tested and at least 50 percent mortality was observed) | B (either (1) the compound was tested and less than 50 percent mortality was observed or (2) the compound was not tested) |  |  | 
6 | COC1C(C)OC(ON=Cc2ccc(-c3cn(-c4cccc(F)n4)cn3)cc2)C(OC)C1OC (stereo not shown) [Compound 22] | B (either (1) the compound was tested and less than 50 percent mortality was observed or (2) the compound was not tested) | B (either (1) the compound was tested and less than 50 percent mortality was observed or (2) the compound was not tested) | B (either (1) the compound was tested and less than 50 percent mortality was observed or (2) the compound was not tested) |  |  | 
7 | COC1C(C)OC(ON=Cc2ccc(-c3cn(-c4cc(I)ccn4)cn3)cc2)C(OC)C1OC (stereo not shown) [Compound 23] | B (either (1) the compound was tested and less than 50 percent mortality was observed or (2) the compound was not tested) | B (either (1) the compound was tested and less than 50 percent mortality was observed or (2) the compound was not tested) | B (either (1) the compound was tested and less than 50 percent mortality was observed or (2) the compound was not tested) |  |  | 
8 | COC1C(C)OC(ON=Cc2ccc(-c3cn(-c4cc(F)cc(F)c4)cn3)cc2)C(OC)C1OC (stereo not shown) [Compound 24] | A (the compound was tested and at least 50 percent mortality was observed) | A (the compound was tested and at least 50 percent mortality was observed) | B (either (1) the compound was tested and less than 50 percent mortality was observed or (2) the compound was not tested) |  |  | 
9 | COc1ccc(-c2cn(-c3ccc(OC(F)(F)F)cc3)cn2)cc1C=NOC1OC(C)C(OC)C(OC)C1OC (stereo not shown) [Compound 25] | B (either (1) the compound was tested and less than 50 percent mortality was observed or (2) the compound was not tested) | B (either (1) the compound was tested and less than 50 percent mortality was observed or (2) the compound was not tested) | B (either (1) the compound was tested and less than 50 percent mortality was observed or (2) the compound was not tested) |  |  | 
10 | CO[C@@H]1[C@@H](OC)[C@H](C)O[C@@H](O/N=C/c2ccc(-c3cn(-c4ccc(OC(F)(F)F)cc4)cn3)cc2)[C@@H]1OC [Compound 26, 4-[1-(4-Trifluoromethoxyphenyl)-1H-imidazol-4-yl]-benzaldehyde O-((2S,3R,4R,5S,6S)-3,4,5-trimethoxy-6-methyl-tetrahydropyran-2-yl)-oxime] | A (the compound was tested and at least 50 percent mortality was observed) |  |  | > 50 | A (the compound was tested and at least 50 percent mortality was observed) | > 50
11 | CCCc1ccc(-n2cnc(-c3ccc(C=NOC4OC(C)C(OC)C(OC)C4OC)cc3)c2)cc1 (stereo not shown) [Compound 27] | A (the compound was tested and at least 50 percent mortality was observed) | A (the compound was tested and at least 50 percent mortality was observed) | A (the compound was tested and at least 50 percent mortality was observed) |  |  | 
12 | CCCc1ccc(-n2cnc(-c3ccc(/C=N/O[C@@H]4O[C@@H](C)[C@H](OC)[C@@H](OCC)[C@H]4OC)cc3)c2)cc1 [Compound 29] | B (either (1) the compound was tested and less than 50 percent mortality was observed or (2) the compound was not tested) | B (either (1) the compound was tested and less than 50 percent mortality was observed or (2) the compound was not tested) | A (the compound was tested and at least 50 percent mortality was observed) |  |  | 
13 | COC1C(C)OC(ON=Cc2ccc(-c3cn(-c4ccc(OC(F)(F)F)cc4)cn3)cc2)C(OC)C1OC (stereo not shown) [Compound 30] | A (the compound was tested and at least 50 percent mortality was observed) | A (the compound was tested and at least 50 percent mortality was observed) | A (the compound was tested and at least 50 percent mortality was observed) |  |  | 
14 | COC1C(C)OC(ON=Cc2ccc(-c3cn(-c4ccc(C(F)(F)F)cn4)cn3)cc2)C(OC)C1OC (stereo not shown) [Compound 32] | A (the compound was tested and at least 50 percent mortality was observed) | A (the compound was tested and at least 50 percent mortality was observed) | A (the compound was tested and at least 50 percent mortality was observed) |  |  | 
15 | CCOC1C(C)OC(ON=Cc2ccc(-c3cn(-c4ccc(C(F)(F)F)cn4)cn3)cc2)C(OCC)C1OCC (stereo not shown) [Compound 33] | A (the compound was tested and at least 50 percent mortality was observed) | A (the compound was tested and at least 50 percent mortality was observed) | A (the compound was tested and at least 50 percent mortality was observed) |  |  | 
16 | COC1C(C)OC(ON=Cc2ccc(-c3cn(-c4cc(Br)ccc4Cl)cn3)cc2)C(OC)C1OC (stereo not shown) [Compound 34] | B (either (1) the compound was tested and less than 50 percent mortality was observed or (2) the compound was not tested) | B (either (1) the compound was tested and less than 50 percent mortality was observed or (2) the compound was not tested) | A (the compound was tested and at least 50 percent mortality was observed) |  |  | 
17 | COc1ccc(C=NOC2OC(C)C(OC)C(OC)C2OC)cc1-c1cn(-c2ccc(OC(F)(F)F)cc2)cn1 (stereo not shown) [Compound 35] | B (either (1) the compound was tested and less than 50 percent mortality was observed or (2) the compound was not tested) | B (either (1) the compound was tested and less than 50 percent mortality was observed or (2) the compound was not tested) | A (the compound was tested and at least 50 percent mortality was observed) |  |  | 
18 | COC1C(C)OC(ON=Cc2ccc(-c3cn(-c4ccc(OC(F)(F)F)cc4)cn3)cc2F)C(OC)C1OC (stereo not shown) [Compound 36] | B (either (1) the compound was tested and less than 50 percent mortality was observed or (2) the compound was not tested) | B (either (1) the compound was tested and less than 50 percent mortality was observed or (2) the compound was not tested) | A (the compound was tested and at least 50 percent mortality was observed) |  |  | 
19 | COC1C(C)OC(ON=Cc2ccc(-c3cn(-c4ccc(OCC(F)(F)F)cc4)cn3)cc2)C(OC)C1OC (stereo not shown) [Compound 37] | B (either (1) the compound was tested and less than 50 percent mortality was observed or (2) the compound was not tested) | B (either (1) the compound was tested and less than 50 percent mortality was observed or (2) the compound was not tested) | A (the compound was tested and at least 50 percent mortality was observed) |  |  | 
